In one experiment the test system is NCI-H1963 cells. Nature of the experiment: NCI-H1963 cell proliferation assay (CellTiter-Glo). Type of experiment: cell-based. The conditions noted are these: Homo sapiens, 72 h compound treatment, read-out: H1963 (nM) CTG IC50. The method, then: (§1) Cell proliferation was measured using the CellTiter-Glo@ Luminescent Cell Viability Assay. The assay involved the addition of a single reagent (CellTiter-Glo® Reagent) directly to cells cultured in serum-supplemented medium. RS4;11 (ATC, CRL-1873) cells were cultured according to ATCC recommendations and were seeded at 50,000 cells per well. NCI-H1963 cells (ATCC CRL-5982) were cultured according to ATCC recommendations and seeded at 12,000 cells per well.
(§2) Each compound evaluated was prepared as a DMSO stock solution (10 mM). Compounds were tested in duplicate on each plate, with a 10-point serial dilution curve (1:3 dilution). Compound treatment (1.0 μL) was added from the compound dilution plate to the cell plate. The highest compound concentration was 10 μM (final), with a 0.1% final DMSO concentration. Plates were then incubated at 37° C., 5% CO2. After 48 h of compound treatment for RS4;11 or 72 h for NCI-H1963, cell plates were equilibrated at rt for approximately 30 mins. An equi-volume amount of CellTiter-Glo@ Reagent (40 μL) was added to each well. Plates were mixed for 2 mins on an orbital shaker to induce cell lysis and then incubated at RT for 10 mins to stabilize the luminescent signal. Luminescence was recorded using a Envision plate reader according to CellTiter-Glo protocol. IC50 of each compound was calculated using GraphPad Prism by nonlinear regression analysis.
Background: In ATP-based viability assays light output follows the ATP content of the culture.

Another experiment relates to RS4;11 cells. The experiment can be described thus: RS4;11 cell proliferation assay (CellTiter-Glo). In kind it is cell-based. The settings on record: Homo sapiens, 48 h compound treatment, read-out: RS4;11 (nM) CTG IC50. The protocol: as §1, §2

Regarding `CC1(C)CCC(C23CC(C(F)F)(C2)C3)=C(CN2CCN(c3ccc(C(=O)NS(=O)(=O)c4ccc(N[C@H](CCN5CCC(O)CC5)CSc5ccccc5)c(S(=O)(=O)C(F)(F)F)c4)cc3)CC2)C1` [Example 65, (R)-4-(4-((2-(3-(difluoromethyl)bicyclo[1.1.1]pentan-1-yl)-5,5-dimethylcyclohex-1-en-1-yl)methyl)piperazin-1-yl)-N-((4-((4-(4-hydroxypiperidin-1-yl)-1-(phenylthio)butan-2-yl)amino)-3-((trifluoromethyl)sulfonyl)phenyl)sulfonyl)benzamide], the IC50 with NCI-H1963 cells fell in the range of 500 to 1000 nM.
With `CC1(C)CCC(c2ccc(Cl)cc2)=C(CN2CCN(c3ccc(C(=O)NS(=O)(=O)c4ccc(N[C@H](CCN5CCOCC5)CSc5ccccc5)c(S(=O)(=O)C(F)(F)F)c4)cc3)CC2)C1` [ABT-263, reference compound], the IC50 in the experiment on NCI-H1963 cells was ≤ 500 nM; in the experiment on RS4;11 cells, < 100 nM.
As for `CC1(C)CCC(CN2CCN(c3ccc(C(=O)NS(=O)(=O)c4ccc(N[C@H](CCN5CCC(O)CC5)CSc5ccccc5)c(S(=O)(=O)C(F)(F)F)c4)cc3)CC2)=C(C23CC(C)(C2)C3)C1` [Example 68, (R)-4-(4-((4,4-dimethyl-2-(3-methylbicyclo[1.1.1]pentan-1-yl)cyclohex-1-en-1-yl)methyl)piperazin-1-yl)-N-((4-((4-(4-hydroxypiperidin-1-yl)-1-(phenylthio)butan-2-yl)amino)-3-((trifluoromethyl)sulfonyl)phenyl)sulfonyl)benzamide], the IC50 with NCI-H1963 cells is ≤ 500 nM; with RS4;11 cells, 100 to 1000 nM.
For the molecule `CC1(C)CCC(CN2CCN(c3ccc(C(=O)NS(=O)(=O)c4ccc(NCC5CCOCC5)c([N+](=O)[O-])c4)c(Oc4cnc5[nH]ccc5c4)c3)CC2)=C(c2ccc(Cl)cc2)C1` [ABT-199, reference compound], the figures for the IC50 in the experiment on NCI-H1963 cells and in the experiment with RS4;11 cells were > 1000 nM and < 100 nM, respectively.
As to `CC1(C)CCC(CN2CCN(c3ccc(C(=O)NS(=O)(=O)c4ccc(N[C@H](CCN5CCC(O)C5)CSc5ccccc5)c(S(=O)(=O)C(F)(F)F)c4)cc3)CC2)=C(C23CC(C(F)F)(C2)C3)C1` (stereo partly drawn) [Example 71], the IC50 in the experiment on NCI-H1963 cells was 500 to 1000 nM.
With `CC1(C)CCC(CN2CCN(c3ccc(C(=O)NS(=O)(=O)c4ccc(N[C@H](CCN5CCOCC5)CSc5ccccc5)c([N+](=O)[O-])c4)cc3)CC2)=C(C23CC(C)(C2)C3)C1` [Example 56, (R)-4-(4-((4,4-dimethyl-2-(3-methylbicyclo[1.1.1]pentan-1-yl)cyclohex-1-en-1-yl)methyl)piperazin-1-yl)-N-((4-((4-morpholino-1-(phenylthio)butan-2-yl)amino)-3-nitrophenyl)sulfonyl)benzamide], the values for the IC50 in the experiment on NCI-H1963 cells and in the experiment on RS4;11 cells were 500 to 1000 nM and > 1000 nM, respectively.
Take `CCC12CC(C3=C(CN4CCN(c5ccc(C(=O)NS(=O)(=O)c6ccc(N[C@H](CCN7CCOCC7)CSc7ccccc7)c([N+](=O)[O-])c6)cc5)CC4)CCC(C)(C)C3)(C1)C2` [Example 57, (R)-4-(4-((2-(3-ethylbicyclo[1.1.1]pentan-1-yl)-4,4-dimethylcyclohex-1-en-1-yl)methyl)piperazin-1-yl)-N-((4-((4-morpholino-1-(phenylthio)butan-2-yl)amino)-3-nitrophenyl)sulfonyl)benzamide]: the IC50 in the experiment with NCI-H1963 cells and in the experiment on RS4;11 cells was > 1000 nM throughout.
Turning to `CN1CCC(F)(CNc2ccc(S(=O)(=O)NC(=O)c3ccc(N4CCN(CC5=C(C67CC(C(F)(F)F)(C6)C7)CC(C)(C)CC5)CC4)cc3Oc3cnc4[nH]ccc4c3)cc2[N+](=O)[O-])CC1` [Example 29, 2-((1H-pyrrolo[2,3-b]pyridin-5-yl)oxy)-4-(4-((4,4-dimethyl-2-(3-(trifluoromethyl)bicyclo[1.1.1]pentan-1-yl)cyclohex-1-en-1-yl)methyl)piperazin-1-yl)-N-((4-(((4-fluoro-1-methylpiperidin-4-yl)methyl)amino)-3-nitrophenyl)sulfonyl)benzamide], the IC50 in the experiment on RS4;11 cells is < 100 nM.
The same measure, in the same setting: for `CC1(C)CCC(CN2CCN(c3ccc(C(=O)NS(=O)(=O)c4ccc(NCCN5CC6(CCOCC6)C5)c([N+](=O)[O-])c4)c(Oc4cnc5[nH]ccc5c4)c3)CC2)=C(C23CC(Cl)(C2)C3)C1` [Example 4, 2-(1H-pyrrolo[2,3-b]pyridin-5-yloxy)-N-(4-(2-(7-oxa-2-azaspiro[3.5]nonan-2-yl)ethylamino)-3-nitrophenylsulfonyl)-4-(4-((2-(3-chlorobicyclo[1.1.1]pentan-1-yl)-4,4-dimethylcyclohex-1-enyl)methyl)piperazin-1-yl)benzamide] the value was 100 to 1000 nM; for `CC1(C)CCC(CN2CCN(c3ccc(C(=O)NS(=O)(=O)c4ccc(NCC5CC6(CCOCC6)C5)c([N+](=O)[O-])c4)c(Oc4cnc5[nH]ccc5c4)c3)CC2)=C(C23CC(C(F)F)(C2)C3)C1` [Example 37, 2-((1H-pyrrolo[2,3-b]pyridin-5-yl)oxy)-N-((4-(((7-oxaspiro[3.5]nonan-2-yl)methyl)amino)-3-nitrophenyl)sulfonyl)-4-(4-((2-(3-(difluoromethyl)bicyclo[1.1.1]pentan-1-yl)-4,4-dimethylcyclohex-1-en-1-yl)methyl)piperazin-1-yl)benzamide], < 100 nM.
Same read-out and setting: with `O=C(NS(=O)(=O)c1ccc(NCC2CCOCC2)c([N+](=O)[O-])c1)c1ccc(N2CCN(CC3=C(C45CC(Cl)(C4)C5)CCCC3)CC2)cc1Oc1cnc2[nH]ccc2c1` [Example 72, 2-((1H-pyrrolo[2,3-b]pyridin-5-yl)oxy)-4-(4-((2-(3-chlorobicyclo[1.1.1]pentan-1-yl)cyclohex-1-en-1-yl)methyl)piperazin-1-yl)-N-((3-nitro-4-(((tetrahydro-2H-pyran-4-yl)methyl)amino)phenyl)sulfonyl)benzamide] the figure was > 1000 nM.
Regarding `CN1CCC(CNc2ccc(S(=O)(=O)NC(=O)c3ccc(N4CCN(CC5=C(C67CC(C)(C6)C7)CC(C)(C)CC5)CC4)cc3Oc3cnc4[nH]ccc4c3)cc2[N+](=O)[O-])CC1` [Example 12, 2-((1H-pyrrolo[2,3-b]pyridin-5-yl)oxy)-4-(4-((4,4-dimethyl-2-(3-methylbicyclo[1.1.1]pentan-1-yl)cyclohex-1-en-1-yl)methyl)piperazin-1-yl)-N-((4-(((1-methylpiperidin-4-yl)methyl)amino)-3-nitrophenyl)sulfonyl)benzamide], in the experiment on RS4;11 cells, the IC50 was < 100 nM.
Turning to `CN(C)[C@H]1CC[C@H](Nc2ccc(S(=O)(=O)NC(=O)c3ccc(N4CCN(CC5=C(C67CC(C)(C6)C7)CC(C)(C)CC5)CC4)cc3Oc3cnc4[nH]ccc4c3)cc2[N+](=O)[O-])CC1` [Example 14, 2-((1H-pyrrolo[2,3-b]pyridin-5-yl)oxy)-4-(4-((4,4-dimethyl-2-(3-methylbicyclo[1.1.1]pentan-1-yl)cyclohex-1-en-1-yl)methyl)piperazin-1-yl)-N-((4-(((1r,4r)-4-(dimethylamino)cyclohexyl)amino)-3-nitrophenyl)sulfonyl)benzamide], the IC50 in the experiment with RS4;11 cells was < 100 nM.

Source of the values: patent publication US11344546B2, “Benzamide compounds” (Recurium IP Holdings, LLC, priority 2018, dated 2022).
